How the values were obtained:
human Gal-3 (hGal-3) = human Gal-3 (hGal-3) (Homo sapiens (Human), UniProt P17931); assay: Competitive binding assay: binding of biotinylated hGal-3 to microplate-adsorbed asialofetuin (ASF); settings: Activity on hGal-3; mean values of several measurements
Procedure: (§1) Evaluation of Compound Inhibitory Activity (IC50)
(§2) The inhibitory activity of compounds is determined in competitive binding assays. This spectrophotometric assay measures the binding of biotinylated human Gal-3 (hGal-3) or human Gal-1 (hGal-1), respectively, to a microplate-adsorbed glycoprotein, asialofetuin (ASF) (Proc Natl Acad Sci USA. 2013 Mar. 26; 110(13):5052-7.). Alternatively, and preferably, a human Gal-1 version in which all six cysteines are substituted by serines may be used.
(§3) Briefly, compounds are serially diluted in DMSO (working dilutions). ASF-coated 384 well plates are supplemented with 22.8 μL/well of biotinylated hGal-3 or hGal-1 in assay buffer (i.e. 300-1000 ng/mL biotinylated hGal-3 or hGal-1) to which 1.2 μL of compound working dilutions are added and mixed.
(§4) Plates are incubated for 3 hours at 4° C., then washed with cold assay buffer (3×50 uL), incubated for 1 hour with 25 μL/well of a streptavidin-peroxidase solution (diluted in assay buffer to 80 ng/mL) at 4° C., followed by further washing steps with assay buffer (3×50 uL). Finally, 25 μL/well of ABTS substrate is added.
(§5) The calculated IC50 values may fluctuate depending on the daily assay performance. Fluctuations of this kind are known to those skilled in the art. IC50 values from several measurements are given as mean values.

human Gal-1 (hGal-1) = assay: Competitive binding assay: binding of biotinylated hGal-1 to microplate-adsorbed asialofetuin (ASF); settings: Activities on hGal-1; mean values of several measurements
Procedure: as §1, §2, §3, §4, §5

human Gal-3 (hGal-3), sequence (P17931 whole entry): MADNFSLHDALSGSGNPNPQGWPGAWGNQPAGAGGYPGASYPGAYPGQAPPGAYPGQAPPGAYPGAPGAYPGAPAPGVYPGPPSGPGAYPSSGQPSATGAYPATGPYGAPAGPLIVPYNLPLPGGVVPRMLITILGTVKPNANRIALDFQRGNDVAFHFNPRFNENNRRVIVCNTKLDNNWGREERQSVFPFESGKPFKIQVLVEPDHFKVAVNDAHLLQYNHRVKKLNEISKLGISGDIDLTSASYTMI
human Gal-1 (hGal-1), sequence (P09382 2-135 limits assumed): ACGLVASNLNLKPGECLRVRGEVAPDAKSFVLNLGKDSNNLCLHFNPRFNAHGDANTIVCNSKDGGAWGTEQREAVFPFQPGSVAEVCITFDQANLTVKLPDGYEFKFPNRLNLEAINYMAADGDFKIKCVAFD

| Compound | IC50 (human Gal-3 (hGal-3)) [nM] | IC50 (human Gal-1 (hGal-1)) [nM] |
| --- | --- | --- |
| 1-(4-(3-(((2R,3R,4R,5R,6R)-3,5-dihydroxy-6-(hydroxymethyl)-4-(4-(3,4,5-trifluorophenyl)-1H-1,2,3-triazol-1-yl)tetrahydro-2H-pyran-2-yl)methyl)isoxazol-5-yl)piperidin-1-yl)ethan-1-one [Example 3.17] | 46 | 960 |
| CO[C@@H]1[C@@H](n2cc(-c3cc(F)c(F)c(F)c3)nn2)[C@@H](O)[C@@H](CO)O[C@@H]1Cc1cc(C2CCNC2)on1 (mixture of isomers) [Example 2.08, (2R,3R,4S,5R,6R)-2-(hydroxymethyl)-5-methoxy-6-((5-((RS)-pyrrolidin-3-yl)isoxazol-3-yl)methyl)-4-(4-(3,4,5-trifluorophenyl)-1H-1,2,3-triazol-1-yl)tetrahydro-2H-pyran-3-ol] | 650 | 4500 |
| CCO[C@@H]1[C@@H](n2cc(-c3cc(F)c(F)c(F)c3)nn2)[C@@H](O)[C@@H](CO)O[C@@H]1CC1CC(C2CCN(C(=O)OC(C)(C)C)CC2)=NO1 (mixture of isomers) [Example 2.31, tert-butyl 4-((RS)-5-(((2R,3R,4S,5R,6R)-3-ethoxy-5-hydroxy-6-(hydroxymethyl)-4-(4-(3,4,5-trifluorophenyl)-1H-1,2,3-triazol-1-yl)tetrahydro-2H-pyran-2-yl)methyl)-4,5-dihydroisoxazol-3-yl)piperidine-1-carboxylate] | 300 | 1290 |
| CC(C)(C)OC(=O)N1CCC(C2=NOC(C[C@H]3O[C@H](CO)[C@H](O)[C@H](n4cc(-c5cc(F)c(F)c(F)c5)nn4)[C@H]3OCC(F)F)C2)CC1 (mixture of isomers) [Example 2.32, tert-butyl 4-((RS)-5-(((2R,3R,4S,5R,6R)-3-(2,2-difluoroethoxy)-5-hydroxy-6-(hydroxymethyl)-4-(4-(3,4,5-trifluorophenyl)-1H-1,2,3-triazol-1-yl)tetrahydro-2H-pyran-2-yl)methyl)-4,5-dihydroisoxazol-3-yl)piperidine-1-carboxylate] | 350 | 2960 |
| COC(=O)CO[C@@H]1[C@@H](n2cc(-c3cc(F)c(F)c(F)c3)nn2)[C@@H](O)[C@@H](CO)O[C@@H]1CC1CC(C2CCN(C(=O)OC(C)(C)C)CC2)=NO1 (mixture of isomers) [Example 2.33, tert-butyl 4-((RS)-5-(((2R,3R,4S,5R,6R)-5-hydroxy-6-(hydroxymethyl)-3-(2-methoxy-2-oxoethoxy)-4-(4-(3,4,5-trifluorophenyl)-1H-1,2,3-triazol-1-yl)tetrahydro-2H-pyran-2-yl)methyl)-4,5-dihydroisoxazol-3-yl)piperidine-1-carboxylate] | 310 | 2450 |
| CC(C)(C)OC(=O)N1CCC(C2=NOC(C[C@H]3O[C@H](CO)[C@H](O)[C@H](n4cc(-c5cc(F)c(F)c(F)c5)nn4)[C@H]3OCC(=O)O)C2)CC1 (mixture of isomers) [Example 2.34, 2-(((2R,3R,4S,5R,6R)-2-(((RS)-3-(1-(tert-butoxycarbonyl)piperidin-4-yl)-4,5-dihydroisoxazol-5-yl)methyl)-5-hydroxy-6-(hydroxymethyl)-4-(4-(3,4,5-trifluorophenyl)-1H-1,2,3-triazol-1-yl)tetrahydro-2H-pyran-3-yl)oxy)acetic acid] | 68 | 1190 |
| CNC(=O)CO[C@@H]1[C@@H](n2cc(-c3cc(F)c(F)c(F)c3)nn2)[C@@H](O)[C@@H](CO)O[C@@H]1CC1CC(C2CCN(C(=O)OC(C)(C)C)CC2)=NO1 (mixture of isomers) [Example 2.35, tert-butyl 4-((RS)-5-(((2R,3R,4S,5R,6R)-5-hydroxy-6-(hydroxymethyl)-3-(2-(methylamino)-2-oxoethoxy)-4-(4-(3,4,5-trifluorophenyl)-1H-1,2,3-triazol-1-yl)tetrahydro-2H-pyran-2-yl)methyl)-4,5-dihydroisoxazol-3-yl)piperidine-1-carboxylate] | 140 | 2620 |
| CC(C)(C)OC(=O)N1CCC(C2=NOC(C[C@H]3O[C@H](CO)[C@H](O)[C@H](n4cc(-c5cc(F)c(F)c(F)c5)nn4)[C@H]3OCC(=O)N3CCOCC3)C2)CC1 (mixture of isomers) [Example 2.36, tert-butyl 4-((RS)-5-(((2R,3R,4S,5R,6R)-5-hydroxy-6-(hydroxymethyl)-3-(2-morpholino-2-oxoethoxy)-4-(4-(3,4,5-trifluorophenyl)-1H-1,2,3-triazol-1-yl)tetrahydro-2H-pyran-2-yl)methyl)-4,5-dihydroisoxazol-3-yl)piperidine-1-carboxylate] | 120 | 2770 |
| OC[C@H]1O[C@H](CC2CC(C3CCNCC3)=NO2)[C@H](O)[C@@H](n2cc(-c3cc(F)c(F)c(F)c3)nn2)[C@H]1O (mixture of isomers) [Example 3.01, (2R,3R,4R,5R,6R)-2-(hydroxymethyl)-6-(((RS)-3-(piperidin-4-yl)-4,5-dihydroisoxazol-5-yl)methyl)-4-(4-(3,4,5-trifluorophenyl)-1H-1,2,3-triazol-1-yl)tetrahydro-2H-pyran-3,5-diol] | 300 | 5710 |
| CN1CCC(C2=NOC(C[C@H]3O[C@H](CO)[C@H](O)[C@H](n4cc(-c5cc(F)c(F)c(F)c5)nn4)[C@H]3O)C2)CC1 (mixture of isomers) [Example 3.02, (2R,3R,4R,5R,6R)-2-(hydroxymethyl)-6-(((RS)-3-(1-methylpiperidin-4-yl)-4,5-dihydroisoxazol-5-yl)methyl)-4-(4-(3,4,5-trifluorophenyl)-1H-1,2,3-triazol-1-yl)tetrahydro-2H-pyran-3,5-diol] | 340 | 4620 |
| CC(=O)N1CCC(C2=NOC(C[C@H]3O[C@H](CO)[C@H](O)[C@H](n4cc(-c5cc(F)c(F)c(F)c5)nn4)[C@H]3O)C2)CC1 (mixture of isomers) [Example 3.03, 1-(4-((RS)-5-(((2R,3R,4R,5R,6R)-3,5-dihydroxy-6-(hydroxymethyl)-4-(4-(3,4,5-trifluorophenyl)-1H-1,2,3-triazol-1-yl)tetrahydro-2H-pyran-2-yl)methyl)-4,5-dihydroisoxazol-3-yl)piperidin-1-yl)ethan-1-one] | 150 | 2490 |
| CO[C@@H]1[C@@H](n2cc(-c3cc(F)c(F)c(F)c3)nn2)[C@@H](O)[C@@H](CO)O[C@@H]1CC1CC(C2CCNCC2)=NO1 (mixture of isomers) [Example 3.04, (2R,3R,4S,5R,6R)-2-(hydroxymethyl)-5-methoxy-6-(((RS)-3-(piperidin-4-yl)-4,5-dihydroisoxazol-5-yl)methyl)-4-(4-(3,4,5-trifluorophenyl)-1H-1,2,3-triazol-1-yl)tetrahydro-2H-pyran-3-ol] | 550 | 5650 |
| CO[C@@H]1[C@@H](n2cc(-c3cc(F)c(F)c(F)c3)nn2)[C@@H](O)[C@@H](CO)O[C@@H]1CC1CC(C2CCN(C(C)=O)CC2)=NO1 (mixture of isomers) [Example 3.05, 1-(4-((RS)-5-(((2R,3R,4S,5R,6R)-5-hydroxy-6-(hydroxymethyl)-3-methoxy-4-(4-(3,4,5-trifluorophenyl)-1H-1,2,3-triazol-1-yl)tetrahydro-2H-pyran-2-yl)methyl)-4,5-dihydroisoxazol-3-yl)piperidin-1-yl)ethan-1-one] | 290 | 1860 |
| OC[C@H]1O[C@H](CC2=NOC(C3CCNCC3)C2)[C@H](O)[C@@H](n2cc(-c3cc(F)c(F)c(F)c3)nn2)[C@H]1O (mixture of isomers) [Example 3.09, (2R,3R,4R,5R,6R)-2-(hydroxymethyl)-6-(((RS)-5-(piperidin-4-yl)-4,5-dihydroisoxazol-3-yl)methyl)-4-(4-(3,4,5-trifluorophenyl)-1H-1,2,3-triazol-1-yl)tetrahydro-2H-pyran-3,5-diol] | 840 | 13300 |
| CC(=O)N1CCC(C2CC(C[C@H]3O[C@H](CO)[C@H](O)[C@H](n4cc(-c5cc(F)c(F)c(F)c5)nn4)[C@H]3O)=NO2)CC1 (mixture of isomers) [Example 3.18, 1-(4-((RS)-3-(((2R,3R,4R,5R,6R)-3,5-dihydroxy-6-(hydroxymethyl)-4-(4-(3,4,5-trifluorophenyl)-1H-1,2,3-triazol-1-yl)tetrahydro-2H-pyran-2-yl)methyl)-4,5-dihydroisoxazol-5-yl)piperidin-1-yl)ethan-1-one] | 180 | 2220 |
| CO[C@@H]1[C@@H](n2cc(-c3cc(F)c(F)c(F)c3)nn2)[C@@H](O)[C@@H](CO)O[C@@H]1Cc1cc(C2CCN(C(=O)CC(F)(F)F)CC2)on1 [Example 3.51, 3,3,3-trifluoro-1-(4-(3-(((2R,3R,4S,5R,6R)-5-hydroxy-6-(hydroxymethyl)-3-methoxy-4-(4-(3,4,5-trifluorophenyl)-1H-1,2,3-triazol-1-yl)tetrahydro-2H-pyran-2-yl)methyl)isoxazol-5-yl)piperidin-1-yl)propan-1-one] | 71 |  |

— patent US12319672B2, “Alpha-D-galactopyranoside derivatives” (Idorsia Pharmaceuticals Ltd, priority 2019, dated 2025)
